Source: patent US20240382490A1, “QUINAZOLINE-THIOHYDANTOIN FUSED HETEROCYCLES WHICH ARE SUITABLE FOR TREATING, AMELIORATING OR PREVENTING A PROLIFERATIVE DISORDER” (FRIEDRICH-ALEXANDER-UNIVERSITÄT ERLANGEN NÜRNBERG, priority 2021, published 2024)
Where two headings read alike, the source gives them in different places.

What was measured:
[1] = system: multidrug resistant P glycoprotein-overexpressing CEM/ADR5000 cells; details: previously reported (NPL-9, NPL-10), footnote calls them EC50; cited from earlier work
human endometrium cells = details: NPL-12, read-out: Healthy cells IC50 (human endometrium cells); cited from earlier work
wild-type CCRF CEM cells [2] = details: sensitive wild-type CCRF CEM cells; previously reported (NPL-9, NPL-10), footnote calls them EC50; cited from earlier work
[3] = system: multidrug resistant P glycoprotein-overexpressing CEM/ADR5000 cells; test: IC50 in multidrug resistant CEM/ADR5000 leukemia cells; assay type: cell-based, human
wild-type CCRF CEM cells [4] = test: IC50 in sensitive wild-type CCRF CEM leukemia cells; assay type: cell-based, human
healthy human cells = test: IC50 in healthy cells (selectivity); assay type: cell-based; details: for IC50: healthy human cells; for Activity against healthy cells relative to CEM/ADR5000 cells: healthy cells IC50 compared with CEM/ADR5000 IC50
RPMI-8226 cells = test: CellTiter-Blue cell viability assay, RPMI-8226; assay type: cell-based; details: five dose (0.01, 0.1, 1, 10, 100 μM) screening, 48 h treatment
Method: (§1) All leukemia cell lines (RPMI-8226, K562, HL-60, and MOLT-4) were obtained from NCI-DTP, NCI-Frederick, USA. Cells were cultured and maintained in RPMI-1640 (Corning, USA; #10-040-CV) media supplemented with 10% FBS (Corning, USA; #35-015-CV) and 1% penicillin-streptomycin-amphotericin B (GIBCO, USA; #15240-062) at 37° C. with 5% CO2. At 70 to 80% confluence cells were harvested and plated for cell viability assay.
(§2) Each leukemia cell line was plated at 3000 cells/well (in 100 μL complete media) in black-clear bottom 96-well plates (Corning, USA; #3603). After 24 h, cells were treated with respective compounds at one dose (10 μM) or five dose (0.01, 0.1, 1, 10, 100 μM) concentrations. After 48 h treatment, cell viability was recorded using CellTiter-Blue cell viability assay (Promega, USA; #G8081) as per the manufacturer's protocol.

[5] = system: human leukemia cell line (HAP1); test: Cellular senescence in HAP1 cells; assay type: cell-based; details: mediated by oncogene Ras and downstream MAPK/pRb pathways, FIG. 4
Method: (§3) Quinazoline-thiohydantoin fused heterocycles 5g and 5k were to tested to determine whether they can inhibit MRTF-A nuclear localization to overcome resistance. First the localization of MRTF-A in a human leukemia cell line (HAP1) was analyzed. […] It was also tested whether 5g can activate cellular senescence.

K562 cells = test: CellTiter-Blue cell viability assay, K562; assay type: cell-based; details: for IC50: five dose (0.01, 0.1, 1, 10, 100 μM) screening, 48 h treatment
Method: as §1, §2

MRTF-A = MRTF-A nuclear localization in HAP1 cells; assay type: cell-based; details: human leukemia cell line HAP1, FIG. 4
Method: as §3

MOLT-4 cells = test: CellTiter-Blue cell viability assay, MOLT-4; assay type: cell-based; details: five dose (0.01, 0.1, 1, 10, 100 μM) screening, 48 h treatment
Method: as §1, §2

HL-60 cells = test: CellTiter-Blue cell viability assay, HL-60; assay type: cell-based; details: for IC50: five dose (0.01, 0.1, 1, 10, 100 μM) screening, 48 h treatment
Method: as §1, §2

human fibroblasts = details: normal tissue cell line (human fibroblasts), NPL-11; read-out: Healthy cells IC50 (overall IC50 in human fibroblasts); cited from earlier work
[6] = one dose (10 μM), 48 h, FIG. 5A

Compound | IC50 [3] [µM] | IC50 (wild-type CCRF CEM cells [4]) [µM] | IC50 (healthy human cells) [µM] | also measured
C[C@@H]1CC[C@H]2[C@@H](C)C(=O)O[C@@H]3O[C@@]4(C)CC[C@@H]1[C@]32OO4 [Artemisinin, artemisinin] | – | – | – | IC50 [1]: 26.9 ± 4.4 µM; IC50 (human endometrium cells): 69.6 µM; IC50 (wild-type CCRF CEM cells [2]): 36.9 ± 6.9 µM
O=C1C2=Nc3ccccc3CN2C(=S)N1c1ccc([N+](=O)[O-])cc1 [Compound 3a] | 26.8 ± 1.67 | 27.8 ± 2.6 | 19.8 ± 4.8 | –
COc1cccc(N2C(=O)C3=Nc4ccccc4CN3C2=S)c1 [Compound 3j] | 28.1 ± 0.972 | 28.1 ± 0.831 | 42.8 ± 6.1 | –
CC(C)c1cccc(C(C)C)c1N1C(=O)C2=Nc3ccccc3CN2C1=S [Compound 3l] | 19.1 ± 7.1 | 25.1 ± 6.49 | 30.5 ± 0.5 | –
CC(c1ccccc1)N1C(=O)C2=Nc3ccc(Br)cc3CN2C1=S (stereo not drawn) [Compound 5a] | 0.409 ± 0.028 | 0.483 ± 0.025 | 2.2 ± 0.2 | –
C[C@H](c1ccccc1)N1C(=O)C2=Nc3cc([N+](=O)[O-])ccc3CN2C1=S [Compound 5d] | 0.127 ± 0.019 | 0.14 ± 0.028 | 2.5 ± 0.8 | Activity against healthy cells relative to CEM/ADR5000 cells (healthy human cells): fifteen to twenty times lower activity
CC(c1ccccc1)N1C(=O)C2=Nc3ccc(Cl)cc3CN2C1=S (stereo not drawn) [Compound 5e] | 0.295 ± 0.083 | 0.375 ± 0.043 | 2.4 ± 0.5 | –
CC(c1ccccc1)N1C(=O)C2=Nc3cc(Cl)ccc3CN2C1=S (stereo not drawn) [Compound 5f] | 0.156 ± 0.013 | 0.228 ± 0.022 | 2.3 ± 0.7 | Activity against healthy cells relative to CEM/ADR5000 cells (healthy human cells): fifteen to twenty times lower activity
CC(c1ccccc1)N1C(=O)C2=Nc3cccc(Cl)c3CN2C1=S (stereo not drawn) [Compound 5g] | 0.146 ± 0.015 | 0.125 ± 0.024 | 2.8 ± 0.6 | IC50 (RPMI-8226 cells): 15 ± 1.39 µM; Activation of cellular senescence [5]: able to provoke a senescence response; IC50 (K562 cells): 7.8 ± 0.63 µM; One dose cell viability screening, K562 (K562 cells; [6]): more active compared to 5k; Effect on MRTF-A nuclear localization (MRTF-A): efficiently increased cytoplasmic MRTF-A nuclear localization; IC50 (MOLT-4 cells): 18.5 ± 2.17 µM; IC50 (HL-60 cells): 9.9 ± 0.71 µM; One dose cell viability screening, HL-60 (HL-60 cells; [6]): more active compared to 5k; Activity against healthy cells relative to CEM/ADR5000 cells (healthy human cells): fifteen to twenty times lower activity
COc1ccc2c(c1)CN1C(=S)N(C(C)c3ccccc3)C(=O)C1=N2 (stereo not drawn) [Compound 5k] | 1.33 ± 0.247 | 1.53 ± 0.148 | 1.9 ± 0.4 | IC50 (RPMI-8226 cells): 14 ± 2.43 µM; IC50 (K562 cells): 24.7 ± 4.01 µM; IC50 (MOLT-4 cells): 28.7 ± 2.08 µM; IC50 (HL-60 cells): 41.1 ± 3.12 µM
COc1cccc2c1C(=O)c1c(O)c3c(c(O)c1C2=O)C[C@@](O)(C(=O)CO)C[C@@H]3O[C@H]1C[C@H](N)[C@H](O)[C@H](C)O1 [Doxorubicin, doxorubicin] | – | – | – | IC50 [1]: 23.3 µM; IC50 (wild-type CCRF CEM cells [2]): 0.009 µM; IC50 (human fibroblasts): 1.8 µM
